Results taken from patent US8614206B2 (Genentech, Inc., priority 2011, dated 2013).
Like-named read-outs stand apart in the source and are kept apart here.

Legend:
[1] = test system: MM1.S (multiple myeloma) cells; test: In vitro cell proliferation, MM1.S multiple myeloma cells (CellTiter-Glo, ATP); format: cell-based; details: read-out: Prolif MM1S ATP (EC50)
Method: BaF3, a murine interleukin-3 dependent pro-B cell line, parental cells, BaF3 PIM1 cells, BaF3 PIM2 cells, and MM1.S (multiple myeloma) cells were seeded at 2 k/well, 5 k/well, 5 k/well, and 10 k/well respectively, in a 384-well plate, at 45 μL/well. Test compound was added at 5 μL/well. BaF3 cells (parental and transfected) were incubated overnight, while MM1.S cells were incubated for 72 hours at 37° C., 5% CO2. […] IC50/EC50 values for the test compound were calculated.

[2] = molecular target: PIM1 (Homo sapiens (Human), UniProt P11309); test: Pim kinase inhibition, PIM1 LC3K (Example 901); format: biochemical
Sequence of PIM1 (P11309 whole entry): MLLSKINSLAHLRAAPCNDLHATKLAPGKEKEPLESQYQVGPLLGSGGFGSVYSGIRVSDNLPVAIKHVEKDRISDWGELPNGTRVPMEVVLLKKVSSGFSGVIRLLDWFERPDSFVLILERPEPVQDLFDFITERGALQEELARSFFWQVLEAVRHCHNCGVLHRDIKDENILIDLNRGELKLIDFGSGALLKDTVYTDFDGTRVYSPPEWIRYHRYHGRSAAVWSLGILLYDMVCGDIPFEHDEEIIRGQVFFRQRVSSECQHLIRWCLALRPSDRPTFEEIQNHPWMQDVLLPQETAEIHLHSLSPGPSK
From the text: Determination of the Pim kinase activity of a Formula I compound is possible by a number of direct and indirect detection methods.

[3] = test system: BaF3 parental cells; test: In vitro cell proliferation, BaF3 parental line + IL3 (CellTiter-Glo); format: cell-based, murine; details: read-out: Prolif BaF3 + IL3 (IC50)
[4] = Mus musculus, BaF3, BaF3 parental cells with IL-3, incubated overnight

Row | Compound | Ki [2] | also measured
1 | Nc1sc(-c2c(F)cccc2F)nc1C(=O)Nc1cnn(CC(F)F)c1N1CC[C@@H](O)[C@@H](N)CC1 [Example 375, 5-amino-N-(5-((4S,5R)-4-amino-5-hydroxyazepan-1-yl)-1-(2,2-difluoroethyl)-1H-pyrazol-4-yl)-2-(2,6-difluorophenyl)thiazole-4-carboxamide] | 0.051 nM | EC50 ([1]; Homo sapiens, MM1.S, 72 h): 70.6 nM
2 | CCn1ncc(NC(=O)c2nc(-c3c(F)cccc3F)sc2N)c1N1CCC(N)C(F)CC1 (single isomer, unassigned) [Example 370, 5-amino-N-[5-(4-amino-5-fluoro-azepan-1-yl)-1-ethyl-pyrazol-4-yl]-2-(2,6-difluorophenyl)thiazole-4-carboxamide] | 0.093 nM | EC50 ([1]; Homo sapiens, MM1.S, 72 h): 118 nM
3 | CCOC1CCN(c2c(NC(=O)c3nc(-c4c(F)cccc4F)sc3N)cnn2C)CCC1N (stereo not drawn) [Example 385, 5-amino-N-[5-(4-amino-5-ethoxy-azepan-1-yl)-1-methyl-pyrazol-4-yl]-2-(2,6-difluorophenyl)thiazole-4-carboxamide] | – | EC50 ([1]; 72 hours): 182 nM
4 | Cn1ncc(NC(=O)c2nc(-c3c(F)cccc3F)sc2N)c1N1CCC(N)C(O)CC1 (single isomer, unassigned) [Example 333, 5-amino-N-[5-(4-amino-5-hydroxy-azepan-1-yl)-1-methyl-pyrazol-4-yl]-2-(2,6-difluorophenyl)thiazole-4-carboxamide] | – | IC50 ([3]; BaF3 parental cells with IL-3, incubated overnight): > 25000 nM
5 | CCn1ncc(NC(=O)c2nc(-c3c(F)cccc3F)sc2N)c1N1CCC(N)C(OC)CC1 (single isomer, unassigned) [Example 390, 5-amino-N-[5-(4-amino-5-methoxy-azepan-1-yl)-1-ethyl-pyrazol-4-yl]-2-(2,6-difluorophenyl)thiazole-4-carboxamide] | 0.192 nM | EC50 ([1]; 72 hours): 147 nM
6 | Cn1ncc(NC(=O)c2nc(-c3c(F)cccc3F)sc2N)c1C1CC[C@@H](N)[C@@H](F)CC1 (single isomer, unassigned) [Example 381] | – | EC50 ([1]; Homo sapiens, MM1.S, 72 h): 3500 nM
7 | Nc1sc(-c2c(F)cccc2F)nc1C(=O)Nc1cnn(CC(F)F)c1N1CCC(N)C(O)CC1 (single isomer, unassigned) [Example 398, 5-amino-N-[5-(4-amino-5-hydroxy-azepan-1-yl)-1-(2,2-difluoroethyl)pyrazol-4-yl]-2-(2,6-difluorophenyl)thiazole-4-carboxamide] | 0.142 nM | EC50 ([1]; 72 hours): 5700 nM
8 | CCn1ncc(NC(=O)c2nc(-c3ccccc3F)sc2N)c1N1CCC(N)C(OC)CC1 (stereo not drawn) [Example 392, 5-amino-N-[5-(4-amino-5-methoxy-azepan-1-yl)-1-ethyl-pyrazol-4-yl]-2-(2-fluorophenyl)thiazole-4-carboxamide] | 0.668 nM | EC50 ([1]; Homo sapiens, MM1.S, 72 h): 202 nM
9 | Cn1ncc(NC(=O)c2nc(-c3c(F)cccc3F)sc2N)c1N1CC[C@@H](N)[C@H](F)CC1 [Example 139, 5-amino-N-(5-((4R,5R)-4-amino-5-fluoroazepan-1-yl)-1-methyl-1H-pyrazol-4-yl)-2-(2,6-difluorophenyl)thiazole-4-carboxamide] | – | EC50 ([1]; Homo sapiens, MM1.S, 72 h): 68.4 nM
10 | CC(=O)O[C@H]1CCN(c2c(NC(=O)c3nc(-c4c(F)cccc4F)sc3N)cnn2C)CC[C@H]1N [Example 487, [(4S,5R)-5-amino-1-[4-[[5-amino-2-(2,6-difluorophenyl)thiazole-4-carbonyl]amino]-2-methyl-pyrazol-3-yl]azepan-4-yl]acetate] | – | IC50 [3, 4]: 20100 nM
11 | Cn1ncc(NC(=O)c2nc(-c3c(F)cccc3F)sc2N)c1N1CCC2NCCOC2CC1 (single isomer, unassigned) [Example 397, N-[5-(3,4,4a,5,6,8,9,9a-octahydro-2H-[1,4]oxazino[2,3-d]azepin-7-yl)-1-methyl-pyrazol-4-yl]-5-amino-2-(2,6-difluorophenyl)thiazole-4-carboxamide] | – | EC50 ([1]; Homo sapiens, MM1.S, 72 h): 6400 nM
12 | CO[C@@H]1[C@H](N)CCN(c2c(NC(=O)c3nc(-c4c(F)cccc4F)sc3N)cnn2C)CC12CC2 [Example 516, 5-amino-N-(5-((8R,9S)-8-amino-9-methoxy-5-azaspiro[2.6]nonan-5-yl)-1-methyl-1H-pyrazol-4-yl)-2-(2,6-difluorophenyl)thiazole-4-carboxamide] | – | EC50 ([1]; Homo sapiens, MM1.S, 72 h): 5700 nM
13 | Cn1ncc(NC(=O)c2nc(-c3c(F)cccc3F)sc2N)c1N1CCC(N)C(C(F)F)CC1 (single isomer, unassigned) [Example 511, 5-amino-N-[5-[4-amino-5-(difluoromethyl)azepan-1-yl]-1-methyl-pyrazol-4-yl]-2-(2,6-difluorophenyl)thiazole-4-carboxamide] | – | IC50 [3, 4]: 24300 nM
14 | Cn1ncc(NC(=O)c2nc(-c3c(F)cccc3F)sc2N)c1N1CC[C@@H]2OC(=O)N[C@]2(C)CC1 [Example 509, 5-amino-2-(2,6-difluorophenyl)-N-(1-methyl-5-((3aR,8aS)-3a-methyl-2-oxotetrahydro-2H-oxazolo[5,4-d]azepin-6(7H,8H,8aH)-yl)-1H-pyrazol-4-yl)thiazole-4-carboxamide] | – | IC50 [3, 4]: > 25000 nM
15 | Cn1ncc(NC(=O)c2nc(-c3c(F)cccc3F)sc2N)c1N1CCC(O)CC(F)(F)C1 (single isomer, unassigned) [Example 371, 5-amino-N-[5-(3,3-difluoro-5-hydroxy-azepan-1-yl)-1-methyl-pyrazol-4-yl]-2-(2,6-difluorophenyl)thiazole-4-carboxamide] | – | EC50 ([1]; Homo sapiens, MM1.S, 72 h): 1300 nM
16 | Cn1ncc(NC(=O)c2nc(-c3c(F)cccc3F)sc2N)c1N1CCC(N)CC(C)(F)C1 (stereo not drawn) [Example 256, 5-Amino-2-(2,6-difluoro-phenyl)-thiazole-4-carboxylic acid [5-(5-amino-3-fluoro-3-methyl-azepan-1-yl)-1-methyl-1H-pyrazol-4-yl]-amide] | 0.009 nM | –
17 | COC1CCN(c2c(NC(=O)c3nc(-c4c(F)cccc4F)sc3N)cnn2C2CC2)CCC1N (single isomer, unassigned) [Example 403, 5-amino-N-[5-(4-amino-5-methoxy-azepan-1-yl)-1-cyclopropyl-pyrazol-4-yl]-2-(2,6-difluorophenyl)thiazole-4-carboxamide] | 0.21 nM | –
18 | Cn1ncc(NC(=O)c2nc(-c3ccccc3F)ccc2N)c1N1CC[C@@H](N)CC(F)(F)C1 [Example 250, (R)-3-amino-N-(5-(5-amino-3,3-difluoroazepan-1-yl)-1-methyl-1H-pyrazol-4-yl)-6-(2-fluorophenyl)picolinamide] | 0.03 nM | –
19 | Cn1ncc(NC(=O)c2nc(-c3c(F)cccc3F)sc2N)c1N1CCC(N)C2(CCO2)CC1 (single isomer, unassigned) [Example 498, 5-amino-N-[5-(5-amino-1-oxa-8-azaspiro[3.6]decan-8-yl)-1-methyl-pyrazol-4-yl]-2-(2,6-difluorophenyl)thiazole-4-carboxamide] | 0.038 nM | –
20 | C[C@H]1CN(c2c(NC(=O)c3nc(-c4c(F)cccc4F)sc3N)cnn2CC(F)(F)F)CCN1 [Example 301, (S)-5-Amino-2-(2,6-difluorophenyl)-N-(5-(3-methylpiperazin-1-yl)-1-(2,2,2-trifluoroethyl)-1H-pyrazol-4-yl)thiazole-4-carboxamide] | 2.1 nM | –
21 | Cn1ncc(NC(=O)c2nc(-c3ccccc3F)cnc2N)c1N1CCC(N)C(F)CC1 (single isomer, unassigned) [Example 243, 3-amino-N-(5-(4-amino-5-fluoroazepan-1-yl)-1-methyl-1H-pyrazol-4-yl)-6-(2-fluorophenyl)pyrazine-2-carboxamide] | 0.123 nM | –
22 | Nc1sc(-c2c(F)cccc2F)nc1C(=O)Nc1cnn(CC(F)(F)F)c1N1CCCCC(N)C1 (stereo not drawn) [Example 303, 5-Amino-2-(2,6-difluoro-phenyl)-thiazole-4-carboxylic acid [5-(3-amino-azepan-1-yl)-1-(2,2,2-trifluoro-ethyl)-1H-pyrazol-4-yl]-amide] | 0.208 nM | –
23 | Cc1noc(C)c1-c1nc(C(=O)Nc2cnn(C)c2N2CCC[C@H](N)CC2)c(N)s1 [Example 421, 5-amino-N-[5-[(4S)-4-aminoazepan-1-yl]-1-methyl-pyrazol-4-yl]-2-(3,5-dimethylisoxazol-4-yl)thiazole-4-carboxamide] | 4.37 nM | –
24 | Cc1cc(-c2nc(C(=O)Nc3cnn(C)c3N3CC[C@@H](N)[C@H](F)CC3)c(N)s2)cc(C)n1 [Example 443, 5-amino-N-[5-[(4R,5R)-4-amino-5-fluoro-azepan-1-yl]-1-methyl-pyrazol-4-yl]-2-(2,6-dimethyl-4-pyridyl)thiazole-4-carboxamide] | 2.54 nM | –
25 | Nc1sc(-c2c(F)cccc2F)nc1C(=O)Nc1cnn(CC(F)F)c1N1CCCC(O)CC1 (stereo not drawn) [Example 110, 5-Amino-N-(1-(2,2-difluoroethyl)-5-(4-hydroxyazepan-1-yl)-1H-pyrazol-4-yl)-2-(2,6-difluorophenyl)thiazole-4-carboxamide] | 0.166 nM | –
26 | Cn1ncc(NC(=O)c2nc(-c3cc(F)ccc3F)sc2N)c1N1CC[C@@H](N)CC(F)(F)C1 [Example 283, (R)-5-amino-N-(5-(5-amino-3,3-difluoroazepan-1-yl)-1-methyl-1H-pyrazol-4-yl)-2-(2,5-difluorophenyl)thiazole-4-carboxamide] | 0.008 nM | –
27 | COc1nccc(C)c1-c1nc(C(=O)Nc2cnn(C)c2N2CCC[C@H](N)CC2)c(N)s1 [Example 427, 5-amino-N-[5-[(4S)-4-aminoazepan-1-yl]-1-methyl-pyrazol-4-yl]-2-(2-methoxy-4-methyl-3-pyridyl)thiazole-4-carboxamide] | 3.7 nM | –
28 | Cn1ncc(NC(=O)c2nc(-c3cc(F)ccc3F)sc2N)c1N1CC[C@@H](F)[C@@H](N)CC1 [Example 266, 5-amino-N-(5-((4S,5R)-4-amino-5-fluoroazepan-1-yl)-1-methyl-1H-pyrazol-4-yl)-2-(2,5-difluorophenyl)thiazole-4-carboxamide] | 0.253 nM | –
